Assay [1] can be described thus: Inhibition of ACC1 (unknown origin). Further details: species or system Homo sapiens.
The nature of assay [2]: Inhibition of rat CPT2.
The target in another assay is Autotaxin (Homo sapiens, UniProt Q13822).
The nature of assay [3]: Inhibition of CPT1 (unknown origin). Further details: species or system Homo sapiens.
Assay [4] can be described thus: Binding affinity to rat liver mitochondria CPT1 assessed as inhibition constant measured for 6 mins by Liquid scintillation counting method.
The next assay has as its system MCF7. Put plainly: Antiproliferative activity against human MCF7 cells assessed as reduction in cell growth. The assay is classed as functional, cell-based.
Assay [5] deals with T1, Diacylglycerol O-acyltransferase 2 (Homo sapiens, UniProt Q96PD7).
T1 sequence (Q96PD7 whole entry): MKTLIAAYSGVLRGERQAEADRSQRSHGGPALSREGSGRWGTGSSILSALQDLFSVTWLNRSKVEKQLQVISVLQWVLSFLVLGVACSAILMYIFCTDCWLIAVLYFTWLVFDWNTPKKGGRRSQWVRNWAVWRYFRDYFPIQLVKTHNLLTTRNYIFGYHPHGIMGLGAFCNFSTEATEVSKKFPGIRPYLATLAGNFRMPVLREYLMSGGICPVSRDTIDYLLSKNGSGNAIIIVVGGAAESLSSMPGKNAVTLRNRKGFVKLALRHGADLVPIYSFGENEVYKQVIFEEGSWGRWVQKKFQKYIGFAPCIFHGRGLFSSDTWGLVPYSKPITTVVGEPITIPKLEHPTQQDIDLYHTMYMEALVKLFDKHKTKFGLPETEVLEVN
Put plainly: Inhibition of DGAT2 (unknown origin).

Another assay addresses T2, Bile acid receptor (Homo sapiens, UniProt Q96RI1).
T2 sequence (Q96RI1 whole entry): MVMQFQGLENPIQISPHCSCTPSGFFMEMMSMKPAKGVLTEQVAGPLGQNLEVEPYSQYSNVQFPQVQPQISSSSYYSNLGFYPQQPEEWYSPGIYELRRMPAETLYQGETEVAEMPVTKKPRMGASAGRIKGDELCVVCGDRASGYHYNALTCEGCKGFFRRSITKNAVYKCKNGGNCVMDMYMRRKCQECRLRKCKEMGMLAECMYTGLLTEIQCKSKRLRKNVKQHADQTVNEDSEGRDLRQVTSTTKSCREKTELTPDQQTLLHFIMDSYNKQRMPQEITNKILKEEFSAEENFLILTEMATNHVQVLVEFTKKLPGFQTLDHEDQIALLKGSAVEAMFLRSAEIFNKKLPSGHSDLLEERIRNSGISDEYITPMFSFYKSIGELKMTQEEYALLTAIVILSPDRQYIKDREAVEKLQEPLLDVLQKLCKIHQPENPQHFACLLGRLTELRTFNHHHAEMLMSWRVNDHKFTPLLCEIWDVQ
Put plainly: Agonist activity at FXR (unknown origin).

The target in another assay is Platelet glycoprotein 4 (Homo sapiens, UniProt P16671). Put plainly: Inhibition of N-terminal Flag-tagged human CD36.
Another assay deals with A549. Put plainly: Antiproliferative activity against human A549 cells. The assay is classed as functional, cell-based.
Another assay concerns PC-3. Put plainly: Antiproliferative activity against human PC-3 cells. The assay is classed as functional, cell-based.
In a further assay the test system is SK-OV-3. Put plainly: Antiproliferative activity against human SK-OV-3 cells. It counts as functional, cell-based.

Each structure is given as a SMILES string.

Chain of Platelet glycoprotein 4 (P16671 whole entry): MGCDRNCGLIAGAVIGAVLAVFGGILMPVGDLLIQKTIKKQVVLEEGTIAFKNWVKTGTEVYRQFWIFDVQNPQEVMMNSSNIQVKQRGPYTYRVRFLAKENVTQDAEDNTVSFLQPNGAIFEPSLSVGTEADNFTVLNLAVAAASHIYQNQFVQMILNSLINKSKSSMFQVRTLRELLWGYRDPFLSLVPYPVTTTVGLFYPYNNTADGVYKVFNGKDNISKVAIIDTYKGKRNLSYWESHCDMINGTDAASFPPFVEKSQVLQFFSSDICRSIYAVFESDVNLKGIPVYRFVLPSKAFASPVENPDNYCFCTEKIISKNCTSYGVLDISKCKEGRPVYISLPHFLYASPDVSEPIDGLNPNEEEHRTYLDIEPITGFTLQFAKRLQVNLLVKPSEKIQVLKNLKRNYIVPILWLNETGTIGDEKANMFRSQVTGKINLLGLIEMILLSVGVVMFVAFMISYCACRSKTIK
Description for Autotaxin: Inhibition of ATX (unknown origin)

A word on the IC50: it is the concentration at which inhibition is half-maximal. On to `CC(=O)N1CCC(C(=O)N2CCC(N3CCN(C(=O)c4cc(-c5ccc(C)cc5)nc(-c5ccc(C)cc5)c4)CC3)CC2)CC1`, for which it took 76 nM to reach half-maximal inhibition in assay [1] (IC50).

Molecule `O=C(c1c2ccccc2cc2ccccc12)N1CCN(C2CCN(C(=O)N3CCOCC3)CC2)CC1` gave a concentration for half-maximal inhibition (IC50) in [1] of 239 nM.

Take `CCCCCCCCCCCCCCNC(=O)N[C@H](CC(=O)[O-])C[N+](C)(C)C`: the IC50 in assay [2] is 240 nM. At Autotaxin, `CCCCCCCCCCCCCC(=O)Nc1ccc(CP(=O)(O)O)cc1` returned a concentration for half-maximal inhibition (IC50) of 5.6 nM.

`O=C(c1c2ccccc2cc2ccccc12)N1CCC(N2CCC[C@@H](C(=O)N3CCOCC3)C2)CC1` showed a 50% inhibitory concentration (IC50) in [1] of 116 nM. In assay [3], `COc1ccc(CN2CCN(CCCSc3cc(C(C)(C)C)c(O)c(C(C)(C)C)c3)CC2)c(OC)c1OC` had an IC50 of 50800 nM.

In turn, `Cc1nc(-c2cc(C(=O)N3CCC(c4ccc(C#N)cc4)CC3)c(C)cc2C2CCC2)n[nH]1` yielded a concentration for half-maximal inhibition (IC50) in assay [1] of 40 nM. Same read-out and setting: to `Cc1cc(C)c(-c2[nH]nc(C)c2C)cc1C(=O)N1CC(c2ccc(C#N)cc2)C1` belongs 20 nM.

In the case of `COc1ccc(-c2ccccc2)cc1NS(=O)(=O)c1cc(Cl)cc(Cl)c1O`, the midpoint of inhibition in assay [3], the IC50, lay at 130 nM. Consider `CCOC(=O)c1sc2c(c1C)c(=O)n(CCO)c(=O)n2CCc1ccccc1`, for which it took 3.9 nM to reach half-maximal inhibition in assay [1] (IC50).

`C=C1C(=O)O[C@H](CCCCCCCC)[C@H]1C(=O)O` had a half-maximal inhibitory concentration (IC50) in assay [1] of 460 nM. `COc1cc(C(=O)N2CCC3(CC2)CC(=O)c2cc(-c4cncc(C(=O)O)c4)ccc2O3)cc2c1c(C)cn2C1CC1` yielded a half-inhibitory concentration (IC50) in [1] of 3 nM. Broadly, the Ki is the dissociation constant of the complex between target and ligand, obtained from inhibition or displacement. With `CCCCCCCCCCCCCCC[C@@]1(O)C[N+](C)(C)C[C@@H](CC(=O)[O-])O1`, in assay [4], the inhibitory constant (Ki) was 4200 nM. In [3], `COC(=O)c1cc(Cl)c(O)c(S(=O)(=O)Nc2cc(-c3ccccc3)c(F)cc2F)c1` came in with an IC50 of 44 nM. Molecule `COCc1nc(C(F)(F)F)[nH]c1-c1cc(C(=O)N2CC(c3ccc(C#N)cc3)C2)c(C)cc1C` had a half-inhibitory concentration (IC50) in assay [1] of 40 nM. In the case of `CCCCCCOc1cccc(OCCCCNC(=O)N[C@@H](CC(=O)O)CN(C)C)c1`, in assay [3], inhibition was half-maximal at 44 nM (IC50). Regarding `Cc1sc2ncnc(NC3CCN(Cc4ccccc4)C3)c2c1C` (stereo unspecified), the IC50 in the assay with MCF7 came out at 0.3 nM. On to `O=C(NC1(C(=O)N[C@@H]2CC(=O)c3ccccc3N(Cc3cc(C(F)(F)F)cc(C(F)(F)F)c3)C2=O)CC1)c1ccc(F)cc1`, for which the half-maximal inhibitory concentration (IC50) in [5] was above 75.5 nM. `O=C1Nc2ccccc2-c2cc(c(F)cc2F)NS(=O)(=O)c2cc1cc(Cl)c2O` gave a half-maximal inhibitory concentration (IC50) in assay [3] of 69.7 nM. Take `CC(C)N(C(=O)n1nnn(-c2c(F)cccc2F)c1=O)c1ccc(C(=O)O)cc1Oc1ccccc1`: the IC50 in the assay on MCF7 amounted to 19 nM. Molecule `CCc1nc2c(C)cc(-c3ccc(CN(CCO)CCO)cc3)cn2c1NC(=O)NCc1ccc(Cl)cc1` gave an IC50 on Autotaxin of 3.98 nM.

The term EC50 denotes the concentration that produces a half-maximal response. A low value points to greater potency. In the case of `Cc1cc(-c2nc3ccc(C(=O)O)cc3n2C)ccc1OCc1c(-c2c(Cl)cccc2Cl)noc1C(C)C`, on Bile acid receptor, it took 13.4 nM to reach a half-maximal effect (EC50). `CCCCCCCC/C=C\CCCCCCCC(=O)ON1C(=O)CC(S(=O)(=O)O)C1=O` (stereo unspecified) showed an IC50 against Platelet glycoprotein 4 of 4000 nM. Molecule `CC(C)(C)OC(=O)NC1(C(=O)N[C@@H]2CC(=O)c3ccccc3N(Cc3cc(C(F)(F)F)cc(C(F)(F)F)c3)C2=O)CC1` gave a half-maximal inhibitory concentration (IC50) in assay [5] above 75.5 nM. In the case of `CC(C)(CCCCCC(O)CCCCCC(C)(C)C(=O)O)C(=O)O` [BEMPEDOIC ACID], the IC50 with A549 was 24000 nM; with PC-3, 26000 nM; with SK-OV-3 it was 53000 nM.

Molecule `COc1ccccc1[C@H](Cn1c(=O)n(C(C)(C)C(=O)O)c(=O)c2c(C)c(-c3ncco3)sc21)OC1CCOCC1` [FIRSOCOSTAT] yielded an IC50 in assay [1] of 2.1 nM. On to `CCCCCCCCCCC[C@@H](C[C@@H]1OC(=O)[C@H]1CCCCCC)OC(=O)[C@H](CC(C)C)NC=O` [ORLISTAT], for which the half-inhibitory concentration (IC50) in the assay with MCF7 was found to be 250 nM. `COc1ccc(CN2CCNCC2)c(OC)c1OC` [TRIMETAZIDINE] displayed an IC50 in assay [3] of 759000 nM. Take `C[C@H](CCC(=O)O)[C@H]1CC[C@H]2[C@@H]3[C@@H](O)C[C@@H]4C[C@H](O)CC[C@]4(C)[C@H]3CC[C@]12C` [URSODIOL]: on Autotaxin, the IC50 was 2800 nM.

These data come from ChEMBL document CHEMBL6087471, “A Collection of Novel Antitumor Agents That Regulate Lipid Metabolism in the Tumor Microenvironment” (J Med Chem, 2025).
